Here are results for two molecules from US11684652B2, “HMGB1 antagonist treatment of acute lung injury” (THE FEINSTEIN INSTITUTES FOR MEDICAL RESEARCH, priority 2019, dated 2023).

The test system of series [1] is PAMPs-induced TNF release (LPS, PGN, poly I:C, S100A12). Nature of the series: PAMPs-induced TNF release in human macrophages. The series is classed as cell-based. As to conditions: human primary macrophages, increasing amounts of K883, 16 hours. The method, then: TNF released was measured.
Series [2] can be described thus: stability under acidic conditions (LC-MS). As to conditions: pH=2, two hours. The series is classed as physicochemical.
Series [3] has as its system APAP-induced liver injury. Nature of the series: APAP-induced liver injury model. The series is classed as in vivo, mouse.
Series [4] concerns liver ischemia and reperfusion injury. Briefly: warm liver ischemia and reperfusion (I/R) model. It is filed as in vivo, mouse. The following applies: 6 hours after reperfusion, K883 vs vehicle control; FIGS. 21A-C. The method, then:
[…] (SEQ ID NO: 1) (or vehicle control) was administered intraperitoneally at 500 μg/mouse at the time of I/R surgery and euthanized 6 hours later. Serum levels of ALT and AST were reduced in […] (SEQ ID NO: 1)-treated group vs. vehicle controls. *: P<0.05 vs. I/R group. n=5-7 mice/group.

Series [5] concerns influenza virus A/PR/8/34 (PR8). Nature of the series: lethal influenza infection model. The following applies: C57BL/6J mice; K883 100 ug/mouse intraperitoneally for 5 consecutive days from two days after infection; vs vehicle. It is filed as in vivo.
Series [6] deals with CCI-induced neuropathic pain. Nature of the series: chronic constriction injury (CCI) of the sciatic nerve neuropathic pain model. It is filed as in vivo, rat. The method, then:
The CCI rats each received surgery. […] Mechanical and thermal sensitivity tests were also performed over time. Hargreaves Thermal Hypersensitivity test was administered to the rats as well as Von Frey mechanical hypersensitivity test.
Rats (male Wistar, 150-180 gm, n=6/group) had CCI surgery. […] Two weeks after surgery, thermal (Hargreaves) or mechanical (von Frey) hypersensitivity was assessed. *: P<0.05 vs. PBS group.
In this experiment, male Wistar rats (n=6/group) had CCI surgery. […] Mechanical allodynia was assessed 5 hours later. N=6-8 rats/group. *: p<0.05) vs. HMGB 1 alone. Mechanical and thermal sensitivity tests were also performed over time.

In the next series the test system is STZ-induced diabetes. Nature of the series: STZ-induced diabetes model. It is filed as in vivo. As to conditions: STZ-diabetic mice, repetitive K883 500 μg/mouse, vs PBS. The protocol:
Mice were administered repetitive administration of […] (500 μg/mouse). […] Repetitive administration of […] was therefore shown to be beneficial in STZ-induced diabetes. […] (*: P<0.05 vs. PBS group. N=6-8 mice per group).

The nature of series [7]: pharmacokinetics after intravenous administration in rats (LC-MS). The following applies: IV 1 mg/kg.
Series [8] relates to PAMPs-induced TNF release (LPS, PGN, poly I:C, S100A12). As to conditions: Yang 2015; cited from earlier work.
Series [9] concerns APAP-induced liver injury. As to conditions: cited from earlier work.
The subject of series [10] is liver ischemia and reperfusion injury. As to conditions: cited from earlier work.

The structures appear in SMILES notation. Several values for one entry are separate records, joined by “and”; a condition that tells them apart may be missing. Equal entries are not always repeated. Entries after “also recorded” stand apart in the source; their conditions may differ. Where two headings read alike, the source gives them in different places.

As to `NC(=O)N(CCC(=O)O)NC(=O)[C@H](CO)NC(=O)[C@H](CO)NC(=O)N(N)Cc1ccccc1` [K883], the “inhibition of TNF release induced by other PAMPs (LPS, PGN, AGE, Poly I:C)” value in [1] was “failed to inhibit other PAMPS; also recorded: does not inhibit other PAMPs”. Moreover, in series [2], the “stability under acidic conditions” value is given as “resistant to acid hydrolysis”. In [3] (50 ugs/mouse of K883, vs vehicle controls), the “serum ALT” value was “reduced serum ALT”. Also, the “liver necrosis (H&E)” value in series [3] (APAP 350 mg/kg IP, K883 50 μg/mouse IP at 2 and 7 hours post-APAP, 24 hours, vs vehicle) is reported as “reduced liver necrosis”. In series [3] (APAP 400 mg/kg, 50 μg/mouse IP once-a-day for 5 days starting 2 hours post-APAP, 8 in the control group), the “survival (2 weeks) post-APAP” value is reported as 14 mice out of 15. In [4], the “liver inflammation, H&E (neutrophil infiltration)” value is recorded as “reduced inflammation”. Also, the “survival (14 days) after PR8 infection” value in [5] is recorded as “significant survival”. Besides, in series [6] (K883 800 μg/rat IP once daily for three days, evaluated for 2 weeks), the “tolerance to repeated treatment” value is given as “did not develop tolerance”. The “Paw Withdrawal Latency” value in series [6] (NO CCI (reference value)) was found to be 9.5 ± 1.0 s. The “CCI-induced thermal (Hargreaves) and mechanical (von Frey) hypersensitivity” value in series [6] (male Wistar rats, K883 800 μg/rat IP once a day for 3 days, vs PBS) was “ameliorated both mechanical and thermal hypersensitivity; also recorded: improved CCI-induced thermal and mechanical hypersensitivity; also recorded: ameliorated the thermal hypersensitivity”. Further, the “CCI-induced CXCL1, TNF and IL-1β expression (spine)” value in series [6] (spine) was “reduce CCI-induced CSCL1, TNF and IL-1(3 expression”. In addition, in the series on STZ-induced diabetes, the hyperglycemia result is “delays hyperglycemia”, the insulitis entry is “reduces insulitis” and the weight gain result is reported as “improves weight gain”. Further, the “AUC∞” value in series [7] (Mean) amounted to 3778 ng·h/mL. For the same molecule, the “AUC∞” value in series [7] (individual rats, 1 mg/kg) was 3808 ng·h/mL and 3751 ng·h/mL.
Regarding `NC(=O)[C@H](CCC(=O)O)NC(=O)[C@H](CO)NC(=O)[C@H](CO)NC(=O)[C@@H](N)Cc1ccccc1` [P5779], the “suppression of TNF release in macrophages stimulated by LPS, PGN, Poly I:C, CpG DNA or S100 A12” value in series [8] is listed as “not suppress TNF release”. Moreover, in series [9] (APAP 350 mg/kg, P5779 50 or 500 μg/mouse IP at 2 and 7 hours post-APAP, vs scrambled control peptide), the “liver necrosis (H&E)” value is on record as “reduced liver necrosis”. Also, in series [9] (APAP 400 mg/kg, P5779 500 μg/mouse IP once a day for 5 days starting 2 hours post-APAP), the “percent survival (2 weeks) post-APAP” value is on record as “significantly improved”. Moreover, the “liver inflammation, H&E (neutrophil infiltration)” value in series [10] (6 hours after reperfusion, P5779 vs vehicle control) is reported as “reduced inflammation”. Further, the “serum levels of ALT and AST” value in series [10] (male C57BL/6 mice, 500 μg/mouse IP at the time of I/R surgery, 6 hours, vs vehicle) is “reduced”.
